These are literature values, as cited in publication PMC12839115, “2-Arylbenzofurans as Selective Cholinesterase Inhibitors: Design, Synthesis, and Evaluation as Alzheimer’s Disease Agents” (Biomolecules, 2026).

For this data set, the target named is T1, BChE (EC 3.1.1.8) from equine serum (Equus caballus, UniProt P81908).
T1 construct: BChE (EC 3.1.1.8) from equine serum were employed; from tissue; host or cells: equine serum
T1 sequence (P81908 whole entry): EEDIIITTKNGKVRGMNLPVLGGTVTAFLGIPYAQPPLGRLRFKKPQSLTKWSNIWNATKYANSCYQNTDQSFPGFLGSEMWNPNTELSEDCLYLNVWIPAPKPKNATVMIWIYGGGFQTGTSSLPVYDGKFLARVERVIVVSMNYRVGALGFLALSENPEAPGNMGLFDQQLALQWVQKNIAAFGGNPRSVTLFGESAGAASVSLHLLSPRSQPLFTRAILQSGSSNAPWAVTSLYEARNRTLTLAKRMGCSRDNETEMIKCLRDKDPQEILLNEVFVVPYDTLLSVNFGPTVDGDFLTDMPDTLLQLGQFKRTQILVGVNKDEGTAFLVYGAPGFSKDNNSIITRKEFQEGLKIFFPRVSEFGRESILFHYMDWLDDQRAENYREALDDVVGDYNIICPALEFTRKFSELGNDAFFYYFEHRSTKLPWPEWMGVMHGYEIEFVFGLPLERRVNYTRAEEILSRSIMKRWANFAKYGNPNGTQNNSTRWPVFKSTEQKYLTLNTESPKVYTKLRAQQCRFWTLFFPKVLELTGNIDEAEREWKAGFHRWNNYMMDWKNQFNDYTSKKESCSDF

Usually IC50 stands for the concentration that gives 50% inhibition. As for `Oc1cccc(-c2cc3cccc(Cl)c3o2)c1` [C00004], the IC50 was 13.4 ± 2.57 µM. Turning to `Oc1cccc(-c2cc3cccc(Br)c3o2)c1` [C00010], the half-inhibitory concentration (IC50) was 7.96 ± 0.28 µM.
